Experimental data: BigSolDB 2.1

Settings: in isopropanol

C=NCC#N
Settings | solubility (mole fraction)
278.15 K | 0.00069
283.15 K | 0.000826
288.15 K | 0.00106
293.15 K | 0.00129
298.15 K | 0.00153
303.15 K | 0.00188
308.15 K | 0.00229
313.15 K | 0.00279
318.15 K | 0.00338
323.15 K | 0.00411
